Laboratory results from the NIST ThermoML archive (doi:10.1021/je700546r).
Where “and” joins values, the source holds several entries; their conditions need not be identical. Identical values can stand only once. Numbers after ± are expanded uncertainties.

Test: molar heat capacity at saturation pressure
Settings: Small (less than 1 g) adiabatic calorimetry

## ON=C1CCCCC1 [cyclohexanone oxime]
303.01 K, Crystal 1
  molar heat capacity: 192.59 ± 1 J/K/mol
303.67 K, Crystal 1
  molar heat capacity: 191.89 ± 1 J/K/mol
303.76 K, Crystal 1
  molar heat capacity: 191.84 ± 1 J/K/mol
304.57 K, Crystal 1
  molar heat capacity: 191.66 ± 1 J/K/mol
305.34 K, Crystal 1
  molar heat capacity: 191.58 ± 1 J/K/mol
305.36 K, Crystal 1
  molar heat capacity: 191.49 ± 1 J/K/mol
305.83 K, Crystal 1
  molar heat capacity: 191.51 ± 1 J/K/mol
306.14 K, Crystal 1
  molar heat capacity: 191.69 ± 1 J/K/mol
306.91 K, Crystal 1
  molar heat capacity: 191.81 ± 1 J/K/mol
307.05 K, Crystal 1
  molar heat capacity: 191.78 ± 1 J/K/mol
307.6 K, Crystal 1
  molar heat capacity: 191.89 ± 1 J/K/mol
307.71 K, Crystal 1
  molar heat capacity: 191.96 ± 1 J/K/mol
308.49 K, Crystal 1
  molar heat capacity: 192.2 ± 1 J/K/mol
308.74 K, Crystal 1
  molar heat capacity: 192.41 ± 1 J/K/mol
309.27 K, Crystal 1
  molar heat capacity: 192.53 ± 1 J/K/mol
309.38 K, Crystal 1
  molar heat capacity: 192.47 ± 1 J/K/mol
310.07 K, Crystal 1
  molar heat capacity: 192.72 ± 1 J/K/mol
310.43 K, Crystal 1
  molar heat capacity: 193 ± 1 J/K/mol
310.95 K, Crystal 1
  molar heat capacity: 193.22 ± 1 J/K/mol
311.16 K, Crystal 1
  molar heat capacity: 193.22 ± 1 J/K/mol
311.68 K, Crystal 1
  molar heat capacity: 193.28 ± 1 J/K/mol
312.22 K, Crystal 1
  molar heat capacity: 193.77 ± 1 J/K/mol
312.72 K, Crystal 1
  molar heat capacity: 193.93 ± 1 J/K/mol
312.94 K, Crystal 1
  molar heat capacity: 194.04 ± 1 J/K/mol
313.36 K, Crystal 1
  molar heat capacity: 194.05 ± 1 J/K/mol
314.11 K, Crystal 1
  molar heat capacity: 194.56 ± 1 J/K/mol
314.48 K, Crystal 1
  molar heat capacity: 194.7 ± 1 J/K/mol
314.72 K, Crystal 1
  molar heat capacity: 194.7 ± 1 J/K/mol
315.03 K, Crystal 1
  molar heat capacity: 194.86 ± 1 J/K/mol
316 K, Crystal 1
  molar heat capacity: 195.45 ± 1.1 J/K/mol
316.25 K, Crystal 1
  molar heat capacity: 195.55 ± 1.1 J/K/mol
316.49 K, Crystal 1
  molar heat capacity: 195.61 ± 1.1 J/K/mol
316.71 K, Crystal 1
  molar heat capacity: 195.66 ± 1.1 J/K/mol
317.89 K, Crystal 1
  molar heat capacity: 196.42 ± 1.1 J/K/mol
318.01 K, Crystal 1
  molar heat capacity: 196.38 ± 1.1 J/K/mol
318.27 K, Crystal 1
  molar heat capacity: 196.48 ± 1.1 J/K/mol
318.38 K, Crystal 1
  molar heat capacity: 196.46 ± 1.1 J/K/mol
319.77 K, Crystal 1
  molar heat capacity: 197.45 ± 1.1 J/K/mol and 197.36 ± 1.1 J/K/mol
320.04 K, Crystal 1
  molar heat capacity: 197.43 ± 1.1 J/K/mol
320.11 K, Crystal 1
  molar heat capacity: 197.4 ± 1.1 J/K/mol
321.54 K, Crystal 1
  molar heat capacity: 198.27 ± 1.1 J/K/mol
321.81 K, Crystal 1
  molar heat capacity: 198.43 ± 1.1 J/K/mol
321.98 K, Crystal 1
  molar heat capacity: 198.37 ± 1.1 J/K/mol
323.3 K, Crystal 1
  molar heat capacity: 199.26 ± 1.1 J/K/mol
323.58 K, Crystal 1
  molar heat capacity: 199.58 ± 1.1 J/K/mol
323.8 K, Crystal 1
  molar heat capacity: 199.44 ± 1.1 J/K/mol
325.05 K, Crystal 1
  molar heat capacity: 200.28 ± 1.1 J/K/mol
325.35 K, Crystal 1
  molar heat capacity: 200.52 ± 1.1 J/K/mol
325.62 K, Crystal 1
  molar heat capacity: 200.47 ± 1.1 J/K/mol
326.81 K, Crystal 1
  molar heat capacity: 201.27 ± 1.1 J/K/mol
327.11 K, Crystal 1
  molar heat capacity: 201.48 ± 1.1 J/K/mol
327.43 K, Crystal 1
  molar heat capacity: 201.55 ± 1.1 J/K/mol
328.56 K, Crystal 1
  molar heat capacity: 202.22 ± 1.1 J/K/mol
328.87 K, Crystal 1
  molar heat capacity: 202.64 ± 1.1 J/K/mol
329.24 K, Crystal 1
  molar heat capacity: 202.56 ± 1.1 J/K/mol
330.32 K, Crystal 1
  molar heat capacity: 203.27 ± 1.1 J/K/mol
330.63 K, Crystal 1
  molar heat capacity: 203.71 ± 1.1 J/K/mol
331.06 K, Crystal 1
  molar heat capacity: 203.58 ± 1.1 J/K/mol
331.23 K, Crystal 1
  molar heat capacity: 203.73 ± 1.1 J/K/mol
332.4 K, Crystal 1
  molar heat capacity: 204.63 ± 1.1 J/K/mol
332.88 K, Crystal 1
  molar heat capacity: 204.71 ± 1.1 J/K/mol
332.98 K, Crystal 1
  molar heat capacity: 204.75 ± 1.1 J/K/mol
334.15 K, Crystal 1
  molar heat capacity: 205.6 ± 1.1 J/K/mol
334.7 K, Crystal 1
  molar heat capacity: 205.74 ± 1.1 J/K/mol
334.74 K, Crystal 1
  molar heat capacity: 205.77 ± 1.1 J/K/mol
335.91 K, Crystal 1
  molar heat capacity: 206.77 ± 1.1 J/K/mol
336.49 K, Crystal 1
  molar heat capacity: 206.75 ± 1.1 J/K/mol
336.52 K, Crystal 1
  molar heat capacity: 206.77 ± 1.1 J/K/mol
337.67 K, Crystal 1
  molar heat capacity: 207.8 ± 1.1 J/K/mol
338.25 K, Crystal 1
  molar heat capacity: 207.78 ± 1.1 J/K/mol
338.35 K, Crystal 1
  molar heat capacity: 207.86 ± 1.1 J/K/mol
339.42 K, Crystal 1
  molar heat capacity: 208.77 ± 1.1 J/K/mol
339.99 K, Crystal 1
  molar heat capacity: 208.85 ± 1.1 J/K/mol
340.17 K, Crystal 1
  molar heat capacity: 209 ± 1.1 J/K/mol
341.17 K, Crystal 1
  molar heat capacity: 209.83 ± 1.1 J/K/mol
341.74 K, Crystal 1
  molar heat capacity: 209.95 ± 1.1 J/K/mol
341.99 K, Crystal 1
  molar heat capacity: 210.15 ± 1.1 J/K/mol
342.93 K, Crystal 1
  molar heat capacity: 210.86 ± 1.1 J/K/mol
343.49 K, Crystal 1
  molar heat capacity: 210.94 ± 1.1 J/K/mol
343.81 K, Crystal 1
  molar heat capacity: 211.29 ± 1.1 J/K/mol
344.68 K, Crystal 1
  molar heat capacity: 212.1 ± 1.1 J/K/mol
345.25 K, Crystal 1
  molar heat capacity: 212.02 ± 1.1 J/K/mol
345.63 K, Crystal 1
  molar heat capacity: 212.36 ± 1.1 J/K/mol
346.43 K, Crystal 1
  molar heat capacity: 213.18 ± 1.1 J/K/mol
346.99 K, Crystal 1
  molar heat capacity: 213.12 ± 1.1 J/K/mol
347.45 K, Crystal 1
  molar heat capacity: 213.43 ± 1.1 J/K/mol
348.18 K, Crystal 1
  molar heat capacity: 214.14 ± 1.1 J/K/mol
348.74 K, Crystal 1
  molar heat capacity: 214.13 ± 1.1 J/K/mol
349.27 K, Crystal 1
  molar heat capacity: 214.58 ± 1.1 J/K/mol
349.93 K, Crystal 1
  molar heat capacity: 215.3 ± 1.1 J/K/mol
350.48 K, Crystal 1
  molar heat capacity: 215.24 ± 1.1 J/K/mol
351.09 K, Crystal 1
  molar heat capacity: 215.74 ± 1.1 J/K/mol
351.67 K, Crystal 1
  molar heat capacity: 216.38 ± 1.1 J/K/mol
352.41 K, Crystal 1
  molar heat capacity: 216.96 ± 1.1 J/K/mol
352.91 K, Crystal 1
  molar heat capacity: 217.26 ± 1.1 J/K/mol
353.42 K, Crystal 1
  molar heat capacity: 217.49 ± 1.1 J/K/mol
354.55 K, Crystal 1
  molar heat capacity: 219.52 ± 1.2 J/K/mol
354.73 K, Crystal 1
  molar heat capacity: 219 ± 1.2 J/K/mol
355.16 K, Crystal 1
  molar heat capacity: 218.64 ± 1.2 J/K/mol
363.8 K, Liquid
  molar heat capacity: 272.42 ± 1.4 J/K/mol
364.48 K, Liquid
  molar heat capacity: 272.66 ± 1.4 J/K/mol
364.59 K, Liquid
  molar heat capacity: 273 ± 1.4 J/K/mol
365.34 K, Liquid
  molar heat capacity: 273.22 ± 1.4 J/K/mol
365.92 K, Liquid
  molar heat capacity: 273.48 ± 1.4 J/K/mol
366.16 K, Liquid
  molar heat capacity: 273.91 ± 1.4 J/K/mol
366.88 K, Liquid
  molar heat capacity: 274.16 ± 1.4 J/K/mol
367.36 K, Liquid
  molar heat capacity: 274.33 ± 1.4 J/K/mol
367.52 K, Liquid
  molar heat capacity: 274.57 ± 1.4 J/K/mol
367.73 K, Liquid
  molar heat capacity: 274.96 ± 1.4 J/K/mol
368.42 K, Liquid
  molar heat capacity: 275.12 ± 1.4 J/K/mol
368.79 K, Liquid
  molar heat capacity: 275.25 ± 1.4 J/K/mol
368.96 K, Liquid
  molar heat capacity: 275.31 ± 1.4 J/K/mol
